PMC11294338 (Nature Communications, 2024)

Columns and labels:
[1] = test system: SARS-CoV-2 (USA-WA1/2020) replicon in HuH-7 cells; type: cell-based
SARS-CoV-2 [2] = settings: in vivo; cited from earlier work
SARS-CoV-2 [3] = settings: human, in vivo; cited from earlier work

Structure (SMILES) | EC50 [1] [nM] | transmission to untreated contact animals (SARS-CoV-2 [2]) | post-exposure prophylactic prevention of transmission versus placebo (SARS-CoV-2 [3])
CC(C)(C)[C@H](NC(=O)C(F)(F)F)C(=O)N1C[C@H]2[C@@H]([C@H]1C(=O)N[C@H](C#N)C[C@@H]1CCNC1=O)C2(C)C [Nirmatrelvir] | 15 | – | –
CC(C)C(=O)OC[C@H]1O[C@@H](n2ccc(NO)nc2=O)[C@H](O)[C@@H]1O [molnupiravir] | – | prevented such transmission | neither was able to reach statistical significance over placebo
